Measured values: EP0565593B1, “REDUCING PESTICIDAL INTERACTIONS IN CROPS” (priority 1990, dated 1992)
Read-outs that look alike come from different tables or passages of the source.

Experiments:
Corn [1] = assay: Greenhouse test Procedure II: herbicide, insecticide and antidote incorporated in cover layer (Example 4; Table 4); format: in vivo; conditions: 3 weeks
Protocol: (§1) Containers were filled and compacted with a fumigated silt loam top soil to a depth of about 1.3 cm from the top of the container. A first container was designated as an untreated control, a second container was designated as a herbicide control, and a third container was designated as a herbicide + antidote test container. Each of the containers was seeded with a crop species. A measured amount of herbicide dispersed or dissolved in acetone was applied to a measured quantity of soil. To this same quantity of soil treated with herbicide, there was added a measured amount of antidote dispersed or dissolved in acetone. The quantity of soil treated with the herbicide and antidote was thoroughly mixed to incorporate the herbicide and antidote in the soil uniformly. The seed bed in the third container of soil was covered with the soil treated with the herbicide and antidote and the container was leveled. For each test series, the seed beds of the first and second containers were likewise covered by soil layers. the cover layer of the first container was not treated with herbicide or antidote.
(§2) This procedure is the same as Procedure I, but modified in the manner that after incorporation of the chemicals (herbicide, antidote and insecticide), the containers with the covered seedbed were treated with an initial overhead irrigation equivalent to 0.6 cm rainfall, then subsequently sub-irrigated as required on greenhouse benches.
(§3) The procedure used in this test was Procedure No. 2 above. Formulations of herbicide, insecticide and antidote were applied via track sprayer sequentially onto cover layers, incorporated into the soil which was spread over seedbeds, then irrigated from above with 0.6 cm water. Observations were made three (3) weeks after treatment.

VELE (velvetleaf) = assay: Greenhouse test Procedure II (Example 4; Table 4); format: in vivo, Abutilon theophrasti; conditions: 3 weeks
Protocol: as §1, §2, §3

SJCA = assay: Greenhouse test Procedure IV: herbicide, biocide and antidote PPI, weed SJCA (Examples 53-55; Tables 52-54); format: in vivo; conditions: for inhibition at 140 g/ha: Herbicide No. 18 0.14 Kg/Ha, all PPI
Description: The test in this example paralleled that in Example 51, except the procedure was according to Procedure IV above and the herbicides used were No. 1 (MON-12000); No. 21 (XRD-498) and, again, No. 18 (PURSUIT); the biocide was, again, MOCAP®. Observations were taken thirteen (13) days after PPI treatment with biocide and antidote.
This test was identical to that in Example 52, except for use of a different biocide, DIAZINON (Biocide No. 5, a nematicide and soil insecticide).
This test was also identical to that in the preceding two examples, except that the biocide was malathion (No. 7, an insecticide).
This test was identical to the preceding ones, except the biocide was DPX-43898 (No. 6, active ingredient in FORTRESS® insecticide, a soil insecticide). Also, the observation time was fourteen (14) days after PPI initiation.

Corn [2] = tested on: Corn
Velvetleaf (VELE) [3] = assay: whole plant or invertebrate; format: in vivo, Abutilon theophrasti; conditions: for inhibition at 140 g/ha: Abutilon theophrasti, iv, Herbicide No. 18 0.14 Kg/Ha, all PPI
Shattercane (SHCA) = format: in vivo
Giant foxtail (GIFT) = assay: whole plant or invertebrate; format: in vivo; conditions: Setaria faberi, iv, 312 h, Table 51; Herbicide No. 18 0.14 Kg/Ha; where applied Biocide No. 8 8.96 kg/Ha and antidote 4.48 Kg/Ha; all PPI; observed 13 days after treatment
Velvetleaf (VELE) [4] = format: in vivo, Abutilon theophrasti
Corn [5] = tested on: Corn; remark: listed apart in the source
Corn [6] = assay: whole plant or invertebrate; conditions: Zea mays, iv, Herbicide No. 18 0.14 Kg/Ha, all PPI
[7] = Insecticide 2 3.36 + Herbicide 4 0.07 kg/Ha
[8] = Insecticide 2 3.36 + Herbicide 4 0.14 kg/Ha
[9] = Table 52, Biocide No. 5 alone 8.96 kg/Ha PPI, observed 13 days after treatment
[10] = Table 54, Biocide No. 6 alone 8.96 kg/Ha PPI, observed 14 days after PPI initiation
[11] = Table 53, Biocide No. 7 alone 8.96 kg/Ha PPI, observed 13 days after treatment
[12] = Insecticide 2 3.36 + Herbicide 5 0.07 kg/Ha
[13] = Insecticide 2 3.36 + Herbicide 5 0.14 kg/Ha
[14] = Insecticide 2 3.36 + Herbicide 6 0.07 kg/Ha
[15] = Insecticide 2 3.36 + Herbicide 6 0.14 kg/Ha
[16] = Herbicide No. 18 0.0175 Kg/Ha POE alone, Table 17
[17] = Herbicide No. 18 0.0175 Kg/Ha POE alone, Table 18
[18] = Herbicide No. 18 alone, POE 5 DAP, observed 13 DAP
[19] = no antidote, […], observed 10 days after herbicide application
[20] = 312 h, Table 52, where applied Biocide No. 5 8.96 kg/Ha and antidote 4.48 Kg/Ha, observed 13 days after treatment
[21] = 336 h, Table 54, where applied Biocide No. 6 8.96 kg/Ha and antidote 4.48 Kg/Ha, observed 14 days after PPI initiation

Q: What does the source list for “2-Thiophenecarboxylic acid, 3-[[[[(4,6-dimethoxy-1,3,5-triazin-2-yl)amino]carbonyl]amino]sulfonyl]-, methyl ester [Herbicide No. 4]”?
A: % Injury Corn (Corn [1]; Herbicide 4 0.07 kg/Ha): 15%; % Injury Corn (Corn [1]; Herbicide 4 0.14 kg/Ha): 38%; % Injury Corn (Corn [1]; [7]): 83%; % Injury Corn (Corn [1]; [8]): 80%; % Injury VELE (VELE (velvetleaf); Herbicide 4 0.07 kg/Ha): 10%; % Injury VELE (VELE (velvetleaf); Herbicide 4 0.14 kg/Ha): 52%; % Injury VELE (VELE (velvetleaf); [7]): 55%; % Injury VELE (VELE (velvetleaf); [8]): 5%

Q: How did the “% Inhibition SJCA” value (SJCA; [9]) turn out when `CCOP(=S)(OCC)Oc1cc(C)nc(C(C)C)n1` [Biocide No. 5, O,O-Diethyl (-(2-isopropyl-4-methyl-6-pyrimidinyl phosphorothioate, reference compound] was run?
A: 50%

Q: What about the “% Inhibition Corn” value (Corn [2]; [9]) of the same molecule?
A: 0%

Q: And the “% Inhibition VELE” value (Velvetleaf (VELE) [3]; [9])?
A: 25%

Q: How did the “% Inhibition SJCA” value (SJCA; [10]) turn out when `CCOP(=S)(OCC)OC(Cl)C(Cl)(Cl)Cl` (centres unmarked) [Biocide No. 6, O,O-Diethyl-O-1,2,2,2-tetrachloroethyl phosphorothioate, reference compound] was run?
A: 0%

Q: What about the “% Inhibition Corn” value (Corn [2]; [10]) of the same molecule?
A: 0%

Q: What about the “% Inhibition VELE” value (Velvetleaf (VELE) [3]; [10]) of the same molecule?
A: 0%

Q: `CCOC(=O)CC(SP(=S)(OC)OC)C(=O)OCC` (centres unmarked) [Biocide No. 7, O,O-Dimethyl phosphorothioate of diethyl mercaptosuccinate, reference compound] was tested. Which “% Inhibition SJCA” value (SJCA; [11]) did it give?
A: 0%

Q: What about the “% Inhibition Corn” value (Corn [2]; [11]) of the same molecule?
A: 0%

Q: And the “% Inhibition VELE” value (Velvetleaf (VELE) [3]; [11])?
A: 0%

Q: Which “% Injury Corn” value (Corn [1]; Herbicide 5 0.07 kg/Ha) does the source give for `CCOC(=O)c1ccccc1S(=O)(=O)NC(=O)Nc1nc(Cl)cc(OC)n1` [Herbicide No. 5, Benzoic acid, 2-[[[[(4-chloro-6-methoxy-2-pyrimidin-2-yl)amino]carbonyl]amino]sulfonyl]ethyl ester] here?
A: 88%

Q: And the “% Injury Corn” value (Corn [1]; Herbicide 5 0.14 kg/Ha)?
A: 92%

Q: What about the “% Injury Corn” value (Corn [1]; [12]) of the same molecule?
A: 95%

Q: What about the “% Injury Corn” value (Corn [1]; [13]) of the same molecule?
A: 98%

Q: What about the “% Injury VELE” value (VELE (velvetleaf); Herbicide 5 0.07 kg/Ha) of the same molecule?
A: 57%

Q: What about the “% Injury VELE” value (VELE (velvetleaf); Herbicide 5 0.14 kg/Ha) of the same molecule?
A: 77%

Q: And the “% Injury VELE” value (VELE (velvetleaf); [12])?
A: 83%

Q: And the “% Injury VELE” value (VELE (velvetleaf); [13])?
A: 70%

Q: How did the “% Injury Corn” value (Corn [1]; Herbicide 6 0.07 kg/Ha) turn out when `CCc1cnc(C2=NC(C)(C(C)C)C(=O)N2)c(C(=O)O)c1` (centres unmarked) [Herbicide No. 6, 3-Pyridinecarboxylic acid, 2-[4,5-dihydro-4-methyl-4-(1-methylethyl)-5-oxo-1H-imidazol-2-yl]5-ethyl] was run?
A: 2%

Q: And the “% Injury Corn” value (Corn [1]; Herbicide 6 0.14 kg/Ha)?
A: 23%

Q: What about the “% Injury Corn” value (Corn [1]; [14]) of the same molecule?
A: 65%

Q: What about the “% Injury Corn” value (Corn [1]; [15]) of the same molecule?
A: 43%

Q: And the “% Injury VELE” value (VELE (velvetleaf); Herbicide 6 0.07 kg/Ha)?
A: 33%

Q: What about the “% Injury VELE” value (VELE (velvetleaf); Herbicide 6 0.14 kg/Ha) of the same molecule?
A: 32%

Q: What about the “% Injury VELE” value (VELE (velvetleaf); [14]) of the same molecule?
A: 30%

Q: And the “% Injury VELE” value (VELE (velvetleaf); [15])?
A: 20%

Q: Which “% Inhibition SHCA” value (Shattercane (SHCA); [16]) does the source give for `CC(C)C1(C)N=C(c2ncccc2C(=O)O)NC1=O` (centres unmarked) [Herbicide No. 18, 3-Pyridinecarboxylic acid, 2-[4,5-dihydro-4-methyl-4-(1-methylethyl)-5-oxo-1H-imidazol-2-yl]-, reference compound] here?
A: 65%

Q: What about the “% Inhibition SHCA” value (Shattercane (SHCA); [17]) of the same molecule?
A: 45%

Q: What about the “% Inhibition SHCA” value (Shattercane (SHCA); [18]) of the same molecule?
A: 20%

Q: What about the “% Inhibition SHCA” value (Shattercane (SHCA); Table 50, Herbicide No. 18 0.017 Kg/Ha POE, where applied Biocide No. 8 8.96 kg/Ha and antidote 4.48 Kg/Ha PPI, observed 9 days after POE) of the same molecule?
A: 40%

Q: And the “% Inhibition SHCA” value (Shattercane (SHCA); [19])?
A: 60%

Q: And the inhibition at 140 g/ha (Giant foxtail (GIFT))?
A: 75%

Q: And the “% Inhibition VELE” value (Velvetleaf (VELE) [4]; [16])?
A: 80%

Q: And the “% Inhibition VELE” value (Velvetleaf (VELE) [4]; [17])?
A: 85%

Q: And the “% Inhibition VELE” value (Velvetleaf (VELE) [4]; in vivo)?
A: 80%

Q: And the “% Inhibition VELE” value (Velvetleaf (VELE) [4]; [19])?
A: 80%

Q: What about the inhibition at 140 g/ha (SJCA; [20]) of the same molecule?
A: 75%

Q: What about the inhibition at 140 g/ha (SJCA; 312 h, Table 53, where applied Biocide No. 7 8.96 kg/Ha and antidote 4.48 Kg/Ha, observed 13 days after treatment) of the same molecule?
A: 70%

Q: And the inhibition at 140 g/ha (SJCA; [21])?
A: 75%

Q: And the “% Inhibition Corn” value (Corn [5]; [16])?
A: 15%

Q: What about the “% Inhibition Corn” value (Corn [5]; [17]) of the same molecule?
A: 10%

Q: What about the “% Inhibition Corn” value (Corn [5]; [18]) of the same molecule?
A: 5%

Q: And the inhibition at 140 g/ha (Velvetleaf (VELE) [3]; 312 h, Table 51, where applied Biocide No. 8 8.96 kg/Ha and antidote 4.48 Kg/Ha, observed 13 days after treatment)?
A: 65%

Q: And the inhibition at 140 g/ha (Velvetleaf (VELE) [3]; [20])?
A: 75%

Q: And the inhibition at 140 g/ha (Velvetleaf (VELE) [3]; [21])?
A: 70%

Q: And the inhibition at 140 g/ha (Corn [6]; 312 h, read-out: % Inhibition Corn, Table 51, where applied Biocide No. 8 8.96 kg/Ha and antidote 4.48 Kg/Ha, observed 13 days after treatment)?
A: 15%

Q: What about the inhibition at 140 g/ha (Corn [6]; 312 h, read-out: % Inhibition Corn, Table 52, where applied Biocide No. 5 8.96 kg/Ha and antidote 4.48 Kg/Ha, observed 13 days after treatment) of the same molecule?
A: 10%

Q: And the inhibition at 140 g/ha (Corn [6]; 312 h, read-out: % Inhibition Corn, Table 53, where applied Biocide No. 7 8.96 kg/Ha and antidote 4.48 Kg/Ha, observed 13 days after treatment)?
A: 15%

Q: And the inhibition at 140 g/ha (Corn [6]; 336 h, read-out: % Inhibition Corn, Table 54, where applied Biocide No. 6 8.96 kg/Ha and antidote 4.48 Kg/Ha, observed 14 days after PPI initiation)?
A: 15%
